The values below are quoted from earlier work in paper PMC12371493 (ACS Bio & Med Chem Au, 2025).

The series has as its system MC38-hPD-L1 tumor. As to conditions: dosed SubQ; ref not given.

Turning to `CO[C@H]1[C@H]2OP(=O)(O)OC[C@@]34C[C@@H]3[C@@H](n3cnc5c(N)ncnc53)[C@H](O)[C@@H]4O[P@](=O)(S)OC[C@H]1O[C@H]2n1cnc2c(=O)[nH]c(N)nc21` [ALG-031048], the “reduction of MC38-hPD-L1 tumor” value was “could reduce MC38-hPD-L1tumor, albeit modestly”.
